Experimental data published in patent US20240108734A1, “METHODS FOR TREATING AND AMELIORATING CANCER” (The Regents of the University of California, priority 2021, published 2024).

Legend:
Type in all cases: in vivo
[1] = system: MF CD34+ cells engrafted in NSG-SGM3 mice; experiment: Humanized MF MPN-SPC (pre-LSC) mouse model
Text: Human CD34^+ cells isolated from MF and BC CML samples (Table S2, illustrated as FIG. 11) were transplanted intravenously into adult NSG-SGM3 (expressing human IL-3, GM-CSF and SCF) mice following 300 cGy of irradiation or intrahepatically into neonatal RAG2^−/− yc^−/− mice, respectively^27,32.
Human CD34^+ cells isolated from MF and BC CML (Table S2) samples were transplanted intravenously into adult NSG-SGM3 (expressing human IL-3, GM-CSF and SCF) mice following
300 cGy of irradiation or intrahepatically into newborn RAG2^−/−[…]c^−/− mice^28,32,34. Post-transplantation (13 to 16 weeks), bone marrow and spleen were collected and analyzed by FACS^32. Mice were treated with vehicle, mismatch or imetelstat at varying doses. Also, MF CD34^+ cells were transduced with pCDH lentivirus control or ADAR1-OE lentivirus with a MOI of 100 for 48 hours, followed by intravenous transplantation into NSG-SGM3 mice to assess the impact of ADAR1 overexpression on MF engraftment.
FIG. 4A. A schema of humanized BC CML LSC and MF SPC mouse models. Human CD34^+ cells sorted from either BC CML or myelofibrosis patient blood or marrow were transplanted into neonatal Rag2^−/−[…]c^−/− mice or intravenously transplanted into adult NSG-S mice. Engrafted BC CML or MF mouse models were randomized into (1) vehicle control, (2) mismatch control, and (3) imetelstat treatment groups (n≥3/group). Bone marrow (BM) and spleen were collected when completing the dosing plan, and the single-cell suspension was analyzed by FACS.
FIG. 4B. Bone marrow from each treatment group was collected for histological examination and FACS analysis. Left: Photomicrogaphs depict reticulin staining, DAPI staining, human CD45^+ expression and merged DAPI and CD45 images in bone marrow collected from no transplant, vehicle, and mismatch controls as well as from imetelstat treated myelofibrosis (MF) mouse models. Right: FACS analysis plots depicting forward scatter (FSC, y-axis) and human CD45 engraftment (x-axis) in no transplant, vehicle, and mismatch controls as well as imetelstat treated MF mouse models.

telomerase = molecular target: T1, telomerase (Homo sapiens, UniProt O14746); experiment: TRAP telomerase activity assay in BC CML engrafted human CD45+ cells; details: imetelstat compared with vehicle, p<0.0002
T1 construct: Cell lysates from 5×10^5 CD34^+ selected cells from BC CML engrafted mice or K562 cells were prepared; endogenous in cells; host or cells: human CD45+ / CD34+ cells selected from bone marrow or spleen of BC CML engrafted mice
T1 sequence (O14746 whole entry): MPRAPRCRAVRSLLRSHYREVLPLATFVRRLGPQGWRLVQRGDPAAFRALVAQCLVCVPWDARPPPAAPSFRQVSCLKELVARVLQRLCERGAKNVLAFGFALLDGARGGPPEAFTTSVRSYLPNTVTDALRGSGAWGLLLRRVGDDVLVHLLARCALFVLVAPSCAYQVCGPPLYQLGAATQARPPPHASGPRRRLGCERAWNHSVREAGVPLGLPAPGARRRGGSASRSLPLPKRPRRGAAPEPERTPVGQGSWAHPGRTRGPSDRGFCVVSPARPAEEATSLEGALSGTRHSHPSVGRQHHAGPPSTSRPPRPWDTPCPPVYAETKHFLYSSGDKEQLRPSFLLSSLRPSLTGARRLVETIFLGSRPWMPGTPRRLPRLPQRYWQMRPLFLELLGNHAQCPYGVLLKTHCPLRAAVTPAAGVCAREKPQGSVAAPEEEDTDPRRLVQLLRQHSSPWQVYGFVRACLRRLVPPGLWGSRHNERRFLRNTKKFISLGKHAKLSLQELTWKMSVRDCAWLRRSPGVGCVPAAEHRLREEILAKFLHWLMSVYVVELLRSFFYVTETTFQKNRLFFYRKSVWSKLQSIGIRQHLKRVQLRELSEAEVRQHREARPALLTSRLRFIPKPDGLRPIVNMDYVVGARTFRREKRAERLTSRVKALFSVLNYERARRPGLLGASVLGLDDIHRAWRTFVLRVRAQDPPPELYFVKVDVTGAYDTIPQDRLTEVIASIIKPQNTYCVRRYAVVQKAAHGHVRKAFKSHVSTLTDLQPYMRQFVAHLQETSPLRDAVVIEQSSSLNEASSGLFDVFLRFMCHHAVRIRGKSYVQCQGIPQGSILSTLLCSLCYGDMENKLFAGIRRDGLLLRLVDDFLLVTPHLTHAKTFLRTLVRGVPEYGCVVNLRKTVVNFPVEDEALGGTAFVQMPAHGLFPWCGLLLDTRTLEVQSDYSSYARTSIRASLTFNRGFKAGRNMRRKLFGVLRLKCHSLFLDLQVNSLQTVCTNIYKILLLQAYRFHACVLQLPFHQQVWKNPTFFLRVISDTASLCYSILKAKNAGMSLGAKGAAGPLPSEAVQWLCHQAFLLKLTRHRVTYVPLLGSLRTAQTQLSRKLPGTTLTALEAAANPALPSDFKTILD
T1 sequence (O60832 whole entry partner): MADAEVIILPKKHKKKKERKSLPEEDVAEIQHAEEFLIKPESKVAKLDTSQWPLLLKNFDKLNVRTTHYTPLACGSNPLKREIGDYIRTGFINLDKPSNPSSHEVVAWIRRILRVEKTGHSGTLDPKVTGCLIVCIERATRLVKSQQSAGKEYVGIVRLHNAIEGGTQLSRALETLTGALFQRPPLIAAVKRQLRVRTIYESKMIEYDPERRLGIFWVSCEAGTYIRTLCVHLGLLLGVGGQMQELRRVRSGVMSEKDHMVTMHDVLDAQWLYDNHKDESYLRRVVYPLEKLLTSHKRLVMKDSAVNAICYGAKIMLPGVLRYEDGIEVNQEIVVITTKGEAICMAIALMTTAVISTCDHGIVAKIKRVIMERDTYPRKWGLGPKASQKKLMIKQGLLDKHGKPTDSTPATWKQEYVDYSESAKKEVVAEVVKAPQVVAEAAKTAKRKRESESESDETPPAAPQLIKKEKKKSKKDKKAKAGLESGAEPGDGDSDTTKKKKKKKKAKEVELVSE
T1 sequence (Q9NX24 whole entry partner): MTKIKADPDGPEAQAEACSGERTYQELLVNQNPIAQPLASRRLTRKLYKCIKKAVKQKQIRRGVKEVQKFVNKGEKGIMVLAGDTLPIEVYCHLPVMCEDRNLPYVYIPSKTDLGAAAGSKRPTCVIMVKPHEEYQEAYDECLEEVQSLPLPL
T1 sequence (Q9NPE3 whole entry partner): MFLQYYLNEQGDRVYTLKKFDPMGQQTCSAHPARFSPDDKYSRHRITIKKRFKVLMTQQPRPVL
T1 sequence (Q9NY12 whole entry partner): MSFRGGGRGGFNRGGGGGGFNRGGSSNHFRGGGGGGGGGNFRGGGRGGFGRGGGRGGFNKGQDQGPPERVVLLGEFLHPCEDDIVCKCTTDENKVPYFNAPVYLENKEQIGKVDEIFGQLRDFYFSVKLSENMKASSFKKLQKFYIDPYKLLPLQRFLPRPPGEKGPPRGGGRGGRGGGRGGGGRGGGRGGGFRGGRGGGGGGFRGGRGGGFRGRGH
T1 sequence (Q9BUR4 whole entry partner): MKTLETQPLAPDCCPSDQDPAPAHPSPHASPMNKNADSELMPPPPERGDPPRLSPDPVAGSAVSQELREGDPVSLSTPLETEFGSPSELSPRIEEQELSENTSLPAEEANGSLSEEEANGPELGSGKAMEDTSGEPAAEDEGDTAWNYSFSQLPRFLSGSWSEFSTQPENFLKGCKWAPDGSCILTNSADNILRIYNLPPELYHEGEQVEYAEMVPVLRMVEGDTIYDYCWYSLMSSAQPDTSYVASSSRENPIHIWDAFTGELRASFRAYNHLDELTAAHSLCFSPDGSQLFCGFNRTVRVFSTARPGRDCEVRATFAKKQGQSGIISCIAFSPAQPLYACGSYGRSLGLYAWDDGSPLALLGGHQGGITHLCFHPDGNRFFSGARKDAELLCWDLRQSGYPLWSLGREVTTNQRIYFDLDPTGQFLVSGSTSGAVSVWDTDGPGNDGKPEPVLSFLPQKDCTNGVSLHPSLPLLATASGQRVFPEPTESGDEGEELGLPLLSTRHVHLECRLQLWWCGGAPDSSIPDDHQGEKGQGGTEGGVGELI
Description: Telomere length was determined using the Telomere PNA Kit/FITC for Flow Cytometry (Dako, Cat #K5327) with a MACSQuant10 and analyzed with FlowJo software. The Relative Telomere Length (RTL) was calculated by dividing the mean fluorescence intensity (MFI) of the test sample G0/G1 population by the MFI of the normal peripheral blood reference G0/G1 population using the Cycletest™ Plus DNA Kit (BD, Cat #340242). Telomerase activity was determined using the TRAPeze Kit RT Telomerase Detection Kit (Millipore, Catalog No. S7710).
Samples were selected from engrafted mouse bone marrow or spleen with human CD45+ immunomagnetic beads (Miltenyi). Telomere length was determined by using the Telomere PNA Kit/FITC for Flow Cytometry (Dako, Cat #K5327). Samples were run on the MACSQuant10 and analyzed with FlowJo software. The Relative Telomere Length (RTL) was calculated. The 1301 cell line was utilized as control cells. The DNA index was determined with the (BD Cycletest™ Plus DNA Kit, Cat #340242). […] Telomerase activity was determined by using TRAPeze Kit RT Telomerase Detection Kit (Millipore, Catalog No. S7710). […]
FIG. 5D. Telomerase activity in BC CML engrafted human CD45^+ cells, as measured by TRAP assay, in vehicle (red), mismatch control (blue) and imetelstat (green) treated BC CML mice.

ABL1 = ABL1 expression in human CD45+ cells from treated BC CML mice; details: p=0.02
Text: FIG. 5F. Boxplot depicting Log 2 (cpm) expression of ABL1 by RNA-seq analysis of human CD45^+ cells isolated from vehicle (red), mismatch control (blue) and imetelstat (green) treated BC CML mouse cells (Student's t-test: vehicle: p=0.037, imetelstat: p=0.02).

imetelstat
progenitor (CD34+CD38+Lin-) engraftment by FACS ([1]; MF318 mouse BM, compared to control treated mice, p<0.04): lower | human CD45+ engraftment by FACS ([1]; MF mouse BM, compared to control treated mice, p<0.014): lower | human CD45+ leukemic cell engraftment by confocal immunofluorescence microscopy ([1]; bone marrow, vs vehicle and mismatch controls): lower | splenomegaly ([1]; compared to control treated mice): decreased splenomegaly | proliferation of human CD45+ cells in bone marrow and spleen ([1]; pre-LSC mouse models from 4 different MF samples, vs vehicle controls, p<0.01, t test): significant reduction | reticulin fibrosis in bone marrow (immunohistochemistry) ([1]; vs vehicle and mismatch controls): less reticulin fibrosis | telomerase activity by TRAP assay (telomerase): reduction | ABL1 expression (ABL1): significantly reduced
